For one molecule, IC50 results are on record in patent US8802712B2, “Pyrazoloquinolines” (Merck Patent GmbH, priority 2010, dated 2014).

This assay relates to CHK2 phosphorylation at threonine 68 in HCT116 cells. Description: Cellular CHK2 Phosphorylation at Threonine 68. Type of assay: cell-based. The conditions noted are these: Homo sapiens, HCT-116, 6 h; HCT116, 10 μM bleomycin, six hours, ELISA; read-out: IC50 (CHK2 phospho-threonine 68). How it is done:
Cellular CHK2 Phosphorylation at Threonine 68
HCT116 cells were cultivated in MEM alpha medium with 10% of foetal calf serum, 1 mM sodium pyruvate and 2 mM glutamine at 37° C. and 10% CO2. The cells were detached from the base of the culture vessels with the aid of trypsine/EDTA, centrifuged off in centrifuge tubes and taken up in fresh medium. The cell density was subsequently determined. 50,000 cells were sown per cavity of a 96-well cell culture plate in 0.1 ml of culture medium and cultivated overnight. Next day, 10 μM bleomycin and test substances in fresh culture medium were added to the cells and these were cultivated for a further six hours. After lysis of the cells, phospho-threonine 68 of the CHK2 kinase was detected in the lysates with the aid of a phospho-CHK2 (Thr68)-specific ELISA detection system (Catalogue No. 7037, Cell Signaling Technologies, USA). The ELISA colour reaction was measured spectrophotometrically at 450 nm. The extinction of the unstimulated controls (vehicle control without bleomycin) was subtracted from the extinction values of the treatment groups. The controls which were treated with bleomycin were set equal to 100% and all other extinction values were set in relation thereto. IC50 values were determined with the aid of the GraphPad Prism statistics program (GraphPad Software, USA) or Assay Explorer (Symyx Technologies Inc., USA).
(In general: In an ELISA, binding on a coated surface is turned into a signal by an enzyme label.)

Each structure is given as a SMILES string.

Broadly, the IC50 is the point on the concentration scale where inhibition reaches its midpoint. `COc1cc2ncc3c(c(-c4ccc(C#N)cc4F)nn3C)c2cc1OC(C(N)=O)c1ccccc1` (stereo not shown) [Compound 91, 2-[1-(4-Cyano-2-fluoro-phenyl)-7-methoxy-3-methyl-3H-pyrazolo[3,4-c]-quinolin-8-yloxy]-2-phenyl-acetamide]: the IC50 fell in the range of 100 to 500 nM.
